Where two headings read alike, the source gives them in different places.
How the values were obtained:
[1] = test system: secondary alcohol dehydrogenase; assay: Purified yeast secondary alcohol dehydrogenase: substrates, electron acceptors, inhibitors, stoichiometry; assay type: biochemical, Pichia sp. NRRL Y-11,328
Description: Large scale cultures of Pichia sp. NRRL Y-11,328 were grown with aeration at 30° C. in a 14-liter New Brunswick f fermentor in a mineral salt medium containing methanol (0.4%, v/v) as the sole carbon source. The cells (200 g., wet weight) were suspended in […] sodium phosphate buffer, pH 7.0, containing 1 mM dithiothreitol (buffer A), and crude extracts were prepared as described previously. To the crude extracts, 18 ml. of protamine sulfate solution [2% solution in 0.1 M tris (hydroxymethyl) aminomethane (tris) base] was added dropwise with continuous stirring. After standing for 30 min., the extracts were centrifuged at 20,000×g. for 60 min. The supernatant solution was fractionated with solid ammonium sulfate. Extracts were brought to 50% of saturation with respect to ammonium sulfate by addition of 313 g. of the salt per liter of extract. Precipitated proteins was removed by centrifugation, and 137 g. of ammonium sulfate was added per liter of the supernatant liquid to bring it to 70% of saturation. Material precipitating between 50 and 70% of saturation was collected by centrifugation and dissolved in buffer A. This preparation was dialyzed overnight against buffer A, and the dialyzed material was applied to a DEAE-cellulose column (5×40 cm) that had been equilibrated with buffer A. The sample was washed with 200 ml. of buffer A and eluted with 2 liters of buffer A that contained NaCl in a linear gradient running from a concentration of 0 to 0.5 M. Fractions of 15 ml. were collected. Fractions containing secondary alcohol dehydrogenase activity were pooled and were termed DEAE-cellulose eluate. The DEAE-cellulose eluate was concentrated by ammonium sulfate fractionation.
Secondary alcohol dehydrogenase activity was measured spectrophotometrically at 340 nm with a NAD^+ as an electron acceptor. The reaction mixture, in a total 3.0 ml., contained 50 mM phosphate buffer, pH 8.0, 5μ moles NAD^+, crude extracts, and subtrate. The reactions were started by addition of 100 μl of 0.1 M substrate and the rate of NAD^+ reduction was measured. Protein concentration was determined by the method of Lowry et al.
The substrate specificity of the purified secondary alcohol dehydrogenase was examined spectrophotometrically.

[2] = test system: secondary alcohol dehydrogenase (SADH); assay: Purified secondary alcohol dehydrogenase activity (formation of reduced NAD); assay type: biochemical, Pseudomonas sp. ATCC 21439
Description: Secondary alcohol dehydrogenase (SADH) from an obligate methanol utilizer, Pseudomonas sp. ATCC 21439 was purified as follows. […] 0.05 M sodium phosphate buffer, pH 7.0 with 0.5 mM dithiothretol (buffer A) and were disrupted sonically (5×1 min.). The crude extract was separated by centrifugation. The crude extract was heat-treated at 50° C. in a water bath for 10 minutes. The resulting precipitate was removed by centrifugation. To the supernatant solution, 25 ml of protamine sulfate solution (2% solution in 0.1 M Tris base) was added dropwise with continuous stirring. After standing for 30 minutes, the extract was centrifuged. The supernatant solution was fractionated with solid ammonium sulfate. The material precipitating between 30 and 60% saturation was collected and was dialized overnight against buffer A. The The dialized material was applied to a DEAE-cellulose column (3 cm by 35 cm) that had been equilibrated with buffer A. The secondary alcohol dehydrogenase activity was eluted in the void volume. This DEAE-cellulose eluate was concentrated by ammonium sulfate fractionation. Material precipitating between 30 and 50% ammonium sulfate saturation was collected by centrifugation and dialyzed overnight against A. This fraction was further washed and filtered through an Amicon unit with XM 50 membrane. The concentrated fraction (6 ml) inside the Amicon unit was applied to an Affi-Gel Blue column (0.8 cm×18 cm) which had been equilibrated with buffer A for affinity chromatography. The column was washed overnight with buffer A (0.18 ml./min.) and then was eluted with buffer A containing 5 mM NAD. Each 1 ml. fraction was collected.
The purified secondary alcohol dehydrogenase enzyme (SADH) may be used directly for converting C3 -C6 secondary alcohols to the corresponding methyl ketones by the procedures described above; however, a source of NAD^+ must be added to the reaction medium. One can determine the NAD-linked secondary alcohol dehydrogenase activity with a fluorescence spectrophotometer (Perkin Elmer, Model MPF 44A) by following the formation of reduced NAD (Ex 340 nm, Em 460 nm). The assay system (3 ml.) will typically contain: sodium phosphate buffer pH 7.0, 150 μmol; NAD 1.0 μmol; a given amount of enzyme preparation; and 20 μmol secondary alcohol. The reaction is started by the addition of secondary alcohol. One unit of SADH enzyme activity represents the reduction of one nmole NAD per minute.
The effect of metal-chelating agents and thioreagents on the activity of the purified SADH enzyme were studied. […] The possibility of ethanol or n-propanol as an inhibitor was studied.

[3] = test system: P(40) particulate fraction of Methylosinus sp. (CRL-15, NRRL B-11,202); assay: Oxidation of n-alkenes and n-alkanes by P(40) particulate fraction; assay type: biochemical; details: substrate oxidized to its epoxide or alcohol, 30° C.
[4] = test system: Methylobacterium organophilum (CRL 26, NRRL B-11,222); assay: Effect of inhibitors on epoxidation of propylene and hydroxylation of methane, cell-containing enzyme preparation; assay type: cell-based; details: NRRLB11, 1 h
[5] = test system: Methylosinus trichosporium OB3b (NRRL B-11,196); assay: as above; assay type: cell-based; details: NRRLB11, 1 h
[6] = test system: Methylococcus capsulatus (CRL Ml, NRRL B-11,219); assay: as above; assay type: cell-based; details: Methylococcus capsulatus, NRRLB11, 1 h
[7] = purified SADH, each inhibitor 1 mM, measured spectrofluorometrically
[8] = examined spectrophotometrically
[9] = read-out: % Inhibition, Epoxidation
[10] = read-out: % Inhibition, Hydroxylation

In the case of `O=C(O)c1cc[c]([Hg+])cc1.[OH-]` [p-hydroxymercuribenzoate], the “inhibition of secondary alcohol dehydrogenase activity” value [1] is reported as “strongly inhibited” and the “% inhibition of SADH activity” value [2, 7] is reported as 100%.
With `[Cu+2]` [cupric] the “% inhibition of SADH activity” value [2, 7] was 25%.
In the case of `Oc1ccccc1` [phenol], the “relative percent rate of oxidation by SADH” value (shortened to “relative percent rate”) [2] is reported as “not oxidized”.
With `CCCCCCC(C)O` (stereo not drawn) [2-octanol] the “oxidation by the purified secondary alcohol dehydrogenase” value [1, 8] was “not oxidized”.
For `CCCO` [n-propanol], the “oxidation by the purified secondary alcohol dehydrogenase” value [1] was “not oxidized” and the “% inhibition of SADH activity” value [2] was “did not inhibit”.
For `[Mg+2]` [Mg^++], the “% inhibition of SADH activity” value [2, 7] was 0%.
With `O=C(O)CCC(=O)O` [succinic acid] the “relative percent rate” value ([2]; 2-butanol = 100%) was “not oxidized”.
For `[Zn+2]` [Zn^++], the “% inhibition of SADH activity” value [2, 7] was 0% and the “% inhibition of SADH activity” value ([2]; purified SADH, each inhibitor 1 mM, measured spectrofluorometrically, listed as zinc) was “did not stimulate”.
`CC` [Ethane] was tested, and the “Rate of Product Formation” value [3] was 3.2 μ moles/hr/mg of protein.
With `CC(O)C(C)O` (stereo not drawn) [butane 2,3-diol] the “substrate specificity of purified SADH” value [2] was “lower rate” and the “relative percent rate” value ([2]; 2-butanol = 100%) was 2.5%.
With `CC(C)O` [2-propanol] the “NAD^+ Reduced” value [1] was 5.4 µmol, the Product formed [1] was 5.5 µmol and the “oxidation by the purified secondary alcohol dehydrogenase” value [1, 8] was “catalyzed the oxidation”. For the same molecule, the “substrate specificity of purified SADH” value [2] was “highest” and the “relative percent rate” value ([2]; 2-butanol = 100%) was 85%.
For `[Co+2]` [Co^++], the “% inhibition of SADH activity” value [2, 7] was 0%.
For `CCCCCO` [pentan-1-ol], the “oxidation by the purified secondary alcohol dehydrogenase” value [1, 8] was “not oxidized”.
`O=[N+]([O-])[O-].[Ag+]` [silver nitrate] was tested, and the “inhibition of secondary alcohol dehydrogenase activity” value [1] was “inhibited”.
`CCCCC(C)O` (stereo not drawn) [2-hexanol] was tested, and the “oxidation by the purified secondary alcohol dehydrogenase” value [1, 8] was “catalyzed the oxidation”, the “substrate specificity of purified SADH” value [2] was “lower rate” and the “relative percent rate” value ([2]; 2-butanol = 100%) was 2%.
In the case of `[Ni+2]` [nickel], the “% inhibition of SADH activity” value [2, 7] is reported as 20%.
`CC(O)CCO` (stereo not drawn) [butane 1,3-diol] was tested, and the “oxidation by the purified secondary alcohol dehydrogenase” value [1, 8] was “not oxidized”, the “substrate specificity of purified SADH” value [2] was “lower rate” and the “relative percent rate” value ([2]; 2-butanol = 100%) was 2%.
With `O=Cc1ccccc1` [benzaldehyde] the “relative percent rate” value ([2]; 2-butanol = 100%) was “not oxidized”.
`C=O` [formaldehyde] was tested, and the “relative percent rate” value [2] was “not oxidized”.
With `CC(C)CO` [isobutanol] the “relative percent rate” value ([2]; 2-butanol = 100%) was “not oxidized”.
In the case of `CCCCCC(C)O` (stereo not drawn) [2-Heptanol], the “oxidation by the purified secondary alcohol dehydrogenase” value [1, 8] is reported as “not oxidized”.
In the case of `C=CC=C` [Butadiene], the “Rate of Product Formation” value [3] is reported as 0.63 μ moles/hr/mg of protein.
For cytochrome c, the “electron acceptor for the purified enzyme” value [1] was “could not act as electron carrier”.
With `CCCC(C)O` (stereo not drawn) [2-pentanol] the “oxidation by the purified secondary alcohol dehydrogenase” value [1, 8] was “catalyzed the oxidation”, the “substrate specificity of purified SADH” value [2] was “lower rate” and the “relative percent rate” value ([2]; 2-butanol = 100%) was 5%.
`CCCCO` [butan-1-ol] was tested, and the “oxidation by the purified secondary alcohol dehydrogenase” value [1] was “not oxidized”.
For `c1c[nH]cn1` [Imidazole], the inhibition at 1000 µM [4, 9] was 100%, the inhibition at 1000 µM [4, 10] was 100% and the inhibition at 1000 µM [5, 9] was 95%. The inhibition at 1000 µM [5, 10] was 90%, the inhibition at 1000 µM [6, 9] was 95% and the inhibition at 1000 µM [6, 10] was 95%. For the same molecule, the “inhibition of secondary alcohol dehydrogenase activity” value [1] was “strongly inhibited”.
With `CO` [methanol] the “oxidation by the purified secondary alcohol dehydrogenase” value [1, 8] was “not oxidized”.
With `[Mn+2]` [Mn^++] the “% inhibition of SADH activity” value [2, 7] was 0%.
`CCC(O)CO` (stereo not drawn) [butane 1,2-diol] was tested, and the “oxidation by the purified secondary alcohol dehydrogenase” value [1, 8] was “not oxidized” and the “relative percent rate” value ([2]; 2-butanol = 100%) was “not oxidized”.
`O=C(O)c1cc(SSc2ccc([N+](=O)[O-])c(C(=O)O)c2)ccc1[N+](=O)[O-]` [5,5'-dithiobis(2-nitrobenzoic acid)] was tested, and the “% inhibition of SADH activity” value [2, 7] was 100% and the “% inhibition of SADH activity” value ([2]; purified SADH, each inhibitor 1 mM, measured spectrofluorometrically, listed as 5,5'-dithiobis (2-nitrobenzoic acid)) was “inhibited”.
In the case of `N#C[S][Hg][S]C#N` [mercuric thiocyanate], the “inhibition of secondary alcohol dehydrogenase activity” value [1] is reported as “inhibited”.
With `C=C` [Ethylene] the “Rate of Product Formation” value [3] was 1.27 μ moles/hr/mg of protein.
For `CC=O` [acetaldehyde], the “substrate specificity of purified SADH” value [2] was “lower rate” and the “relative percent rate” value ([2]; 2-butanol = 100%) was 4%.
With `C=CCC` [1-Butene] the “Rate of Product Formation” value [3] was 2.18 μ moles/hr/mg of protein.
With `CCO` [ethanol] the “oxidation by the purified secondary alcohol dehydrogenase” value [1] was “not oxidized” and the “% inhibition of SADH activity” value [2] was “did not inhibit”.
In the case of `CCN1C(=O)C=CC1=O` [N-ethylmalemide], the “% inhibition of SADH activity” value [2, 7] is reported as 6% and the “% inhibition of SADH activity” value ([2]; purified SADH, each inhibitor 1 mM, measured spectrofluorometrically, listed as N-ethylmaleimide) is reported as “not inhibited”.
In the case of `CC(O)CO` (stereo not drawn) [1,2-propandiol], the “oxidation by the purified secondary alcohol dehydrogenase” value [1, 8] is reported as “not oxidized”.
In the case of `OC1CCCCC1` [cyclohexanol], the “substrate specificity of purified SADH” value [2] is reported as “lower rate” and the “relative percent rate” value ([2]; 2-butanol = 100%) is reported as 4%.
In the case of `[Fe+2]` [ferrous], the “% inhibition of SADH activity” value [2, 7] is reported as 50%.
In the case of `[Fe+3]` [ferric], the “% inhibition of SADH activity” value [2, 7] is reported as 35%.

Reference: US4241184A, “Secondary alcohol dehydrogenase enzyme and use thereof” (priority 1979, dated 1980)
